Data on 29 compounds can be found in PubChem BioAssay (NCI).

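These data come from cells grown in 96-well plates and exposed to compound for 48 hours at five concentrations. The concentration for full growth arrest is given as TGI.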

The first assay deals with SK-MEL-5 melanoma. Description: NCI-60 cell line screen, 48 h.
The compound `Cc1ccc([C@H]2CC(=O)C[C@H](c3ccc(C)cc3)C23C(=O)c2ccccc2C3=O)cc1` registered a TGI above 100 µM.

In turn, `NCCSc1nc2ccccc2c(=O)n1-c1ccccc1` showed a TGI above 100 µM.

Regarding `COC(=O)C1=CC(=O)OC1(OO)c1ccccc1` (stereo unspecified), the TGI was above 100 µM.

Regarding `Nc1ccc(N=Nc2ccccc2)cc1`, the TGI was above 100 µM.

As for `CN(NC(=O)c1cccs1)C1=NCCCN1`, the TGI is above 100 µM.

In the case of `Cc1ccn2c(=O)cc(-c3ccccc3)nc2c1`, the TGI is above 100 µM.

Compound `O=c1[nH]nc(Cc2ccc([N+](=O)[O-])cc2)n1CCO` returned a TGI above 100 µM.

Take `CCn1nc2c3c(ncn3C(C)(C)O2)c1=O`: the TGI was above 100 µM.

On to `CCCCCC(=O)NC(=S)Nc1nn[nH]n1`, for which the TGI was above 100 µM.

In turn, `CCC(C#N)NC(=O)NC(C#N)CC` (stereo unspecified) came in with a TGI above 100 µM.

Compound `C[C@H](N)C(=O)Nc1ccc(-c2nc3ccccc3s2)cc1` showed a TGI of 43 µM.

For `Cc1ccc2c(c1)[nH]c1cc(C(F)(F)F)ccc1[p+]2=O` (stereo unspecified), the TGI stood at 34 µM.

As to `NCCN=C(Nc1ccccc1)Nc1ccccc1`, the TGI was above 100 µM.

Regarding `COC(=O)C1=C(C(=O)OC)SC2(S1)C1=C(CCCC1)SC(C(=O)OC)=C2C(=O)OC`, the TGI stood at 23.4 µM.

Take `C/C=C/C(O)P1(=O)N(Cc2ccccc2)[C@@H]2CCCC[C@H]2N1Cc1ccccc1` (stereo partly specified): the TGI is above 25 µM.

The test system of another assay is OVCAR-8 ovarian. Description: NCI-60 cell line screen, 48 h.
In the case of `CCC1(C(=O)OC(C)(C)C)OC12C(C)CCCC2C` (stereo unspecified), the TGI was above 100 µM.

The compound `Cc1ccc(-c2cc(N)n(-c3nc4c(c(=O)n(C)c(=O)n4C)n3C)n2)cc1` displayed a TGI above 100 µM.

In the case of `CN(C)c1ccc(C2SCC(=O)N2NS(=O)(=O)c2cccc(C(=O)O)c2)cc1` (stereo unspecified), the TGI came to 32.6 µM.

The compound `CC1CCOc2ccc(cc2)C=Nc2ccc(cc2)CCc2ccc(cc2)N=Cc2ccc(cc2)OCC1` (stereo unspecified) gave a TGI above 100 µM.

`COC(=O)[C@H](Cc1ccccc1)NC(=O)[C@H](Cc1ccccc1)NC(=O)[C@@H]1CCCN1C(=O)N[C@H]1C2C=CC(C2)C1C(=O)N1CCC[C@H]1C(=O)N[C@@H](C)C(=O)N[C@H](C(=O)OC)C(C)C` (stereo partly specified) registered a TGI above 100 µM.

The compound `O=C1c2ccccc2-c2nc(-c3cccc([N+](=O)[O-])c3)nnc21` gave a TGI of 86.7 µM.

`CC(=O)N1N=C(c2ccc3ccccc3c2O)CC1C(=O)c1ccco1` (stereo unspecified) yielded a TGI above 100 µM.

Take `N#Cc1nc(-c2cccs2)oc1N`: the TGI is above 100 µM.

On to `NC(=O)NNC(=O)c1nc[nH]c1[N+](=O)[O-]`, for which the TGI is above 100 µM.

On to `O=c1c2c([N+](=O)[O-])cccc2nc2[nH]c3ccccc3n12`, for which the TGI stood at 31 µM.

As to `Cc1cc(C)cc(Nc2cc(=O)[nH]c(=O)[nH]2)c1`, the TGI was above 100 µM.

`O=c1[nH]/c(=C/c2ccc(OCc3ccccc3)cn2)c(=O)[nH]/c1=C/c1ccc(O)cc1` yielded a TGI above 32.4 µM.

As for `N#C/C(=C\n1ccc(=O)[nH]c1=S)C(N)=O`, the TGI is above 100 µM.

`O=C(NCCCCCCNCc1cccc2ccccc12)Nc1cccc2ccccc12` came in with a TGI above 100 µM.

`Cc1ccc([C@H]2CC(=O)C[C@H](c3ccc(C)cc3)C23C(=O)c2ccccc2C3=O)cc1`: the TGI is above 100 µM.

`NCCSc1nc2ccccc2c(=O)n1-c1ccccc1`: the TGI is above 100 µM.

In turn, `COC(=O)C1=CC(=O)OC1(OO)c1ccccc1` (stereo unspecified) had a TGI above 100 µM.

`Nc1ccc(N=Nc2ccccc2)cc1`: the TGI was above 100 µM.

Compound `CN(NC(=O)c1cccs1)C1=NCCCN1` returned a TGI above 100 µM.

Take `Cc1ccn2c(=O)cc(-c3ccccc3)nc2c1`: the TGI was above 100 µM.

The compound `O=c1[nH]nc(Cc2ccc([N+](=O)[O-])cc2)n1CCO` had a TGI above 100 µM.

For the compound `CCC(C#N)NC(=O)NC(C#N)CC` (stereo unspecified), the TGI was above 100 µM.

Consider `C[C@H](N)C(=O)Nc1ccc(-c2nc3ccccc3s2)cc1`, for which the TGI amounted to 66.8 µM.

As to `Cc1ccc2c(c1)[nH]c1cc(C(F)(F)F)ccc1[p+]2=O` (stereo unspecified), the TGI was above 100 µM.

`NCCN=C(Nc1ccccc1)Nc1ccccc1` yielded a TGI above 100 µM.

Compound `COC(=O)C1=C(C(=O)OC)SC2(S1)C1=C(CCCC1)SC(C(=O)OC)=C2C(=O)OC` displayed a TGI of 17.3 µM.

Regarding `C/C=C/C(O)P1(=O)N(Cc2ccccc2)[C@@H]2CCCC[C@H]2N1Cc1ccccc1` (stereo partly specified), the TGI was above 25 µM.

In a further assay the test system is ACHN renal. Nature of the assay: NCI-60 cell line screen, 48 h.
Compound `CCC1(C(=O)OC(C)(C)C)OC12C(C)CCCC2C` (stereo unspecified) registered a TGI of 54.2 µM.

`Cc1ccc(-c2cc(N)n(-c3nc4c(c(=O)n(C)c(=O)n4C)n3C)n2)cc1` yielded a TGI above 100 µM.

`CN(C)c1ccc(C2SCC(=O)N2NS(=O)(=O)c2cccc(C(=O)O)c2)cc1` (stereo unspecified) came in with a TGI above 100 µM.

In the case of `CC1CCOc2ccc(cc2)C=Nc2ccc(cc2)CCc2ccc(cc2)N=Cc2ccc(cc2)OCC1` (stereo unspecified), the TGI is above 100 µM.

For the compound `COC(=O)[C@H](Cc1ccccc1)NC(=O)[C@H](Cc1ccccc1)NC(=O)[C@@H]1CCCN1C(=O)N[C@H]1C2C=CC(C2)C1C(=O)N1CCC[C@H]1C(=O)N[C@@H](C)C(=O)N[C@H](C(=O)OC)C(C)C` (stereo partly specified), the TGI was above 100 µM.

`O=C1c2ccccc2-c2nc(-c3cccc([N+](=O)[O-])c3)nnc21` registered a TGI of 16.7 µM.

Turning to `CC(=O)N1N=C(c2ccc3ccccc3c2O)CC1C(=O)c1ccco1` (stereo unspecified), the TGI was above 100 µM.

As to `N#Cc1nc(-c2cccs2)oc1N`, the TGI was above 100 µM.

Compound `O=c1c2c([N+](=O)[O-])cccc2nc2[nH]c3ccccc3n12` came in with a TGI of 29 µM.

`Cc1cc(C)cc(Nc2cc(=O)[nH]c(=O)[nH]2)c1` registered a TGI above 100 µM.

`O=c1[nH]/c(=C/c2ccc(OCc3ccccc3)cn2)c(=O)[nH]/c1=C/c1ccc(O)cc1` came in with a TGI above 100 µM.

As for `N#C/C(=C\n1ccc(=O)[nH]c1=S)C(N)=O`, the TGI was above 100 µM.

In turn, `O=C(NCCCCCCNCc1cccc2ccccc12)Nc1cccc2ccccc12` had a TGI above 100 µM.

`Cc1ccc([C@H]2CC(=O)C[C@H](c3ccc(C)cc3)C23C(=O)c2ccccc2C3=O)cc1` registered a TGI above 100 µM.

With `NCCSc1nc2ccccc2c(=O)n1-c1ccccc1`, the TGI is above 100 µM.

Take `COC(=O)C1=CC(=O)OC1(OO)c1ccccc1` (stereo unspecified): the TGI was above 100 µM.

Consider `Nc1ccc(N=Nc2ccccc2)cc1`, for which the TGI is above 100 µM.

The compound `CN(NC(=O)c1cccs1)C1=NCCCN1` returned a TGI above 100 µM.

As for `Cc1ccn2c(=O)cc(-c3ccccc3)nc2c1`, the TGI is above 100 µM.

The compound `O=c1[nH]nc(Cc2ccc([N+](=O)[O-])cc2)n1CCO` gave a TGI above 100 µM.

`CCn1nc2c3c(ncn3C(C)(C)O2)c1=O`: the TGI is above 100 µM.

In turn, `CCC(C#N)NC(=O)NC(C#N)CC` (stereo unspecified) came in with a TGI above 100 µM.

`C[C@H](N)C(=O)Nc1ccc(-c2nc3ccccc3s2)cc1` displayed a TGI of 32.8 µM.

`Cc1ccc2c(c1)[nH]c1cc(C(F)(F)F)ccc1[p+]2=O` (stereo unspecified) registered a TGI above 100 µM.
